Here are results for one compound from patent US5512573A, “Use of phthaloylhydrazide derivatives as anti-hypoxic and defensive agents” (priority 1993, dated 1996).

Data set [1] can be described thus: physchem. The note with it: octanol/water, pH 7.4.
Data set [2] can be described thus: physchem.
The test system of a further data set is psoriasis. The procedure: Patient, ill for 5 years. Was cured in the hospital several times during that period. Complained about itching, general weakness, unpleasant sensations in parts of the skin. […] Diagnosis: psoriasis approaching the acute phase.
The drug was administered intravenously to the patient.

Data set [3] deals with brain ischemia (carotid tying) in mice. In words: Example 4: carotid tying and release in mice. It counts as in vivo. The procedure:
We performed experiments on 50 mice of the pyramid by tying the carotid under light anesthesia. After 7 minutes, we released the tie and restored the blood circulation in the ischemic area.

The next data set relates to female pregnant rats. The note with it: 60 mg/kg i.p. The procedure: Teratogenic tests and embryotoxicity tests were performed on 58 female pregnant rats. A single dose was injected intraperitoneally on days 1, 3, 7, 10, 14 and 17 of gestation (60 mg/kg). The rats were decapitated on day 21 of the pregnancy and the uteruses and fetuses were examined.

Turning to `Nc1cccc2c(=O)[nH][nH]c(=O)c12` [5-aminophthaloylhydrazide, 5-amino-2,3-dihydrophthalazine-1,2 dione], in the data set on psoriasis patients (12 to 20 mg/kg daily), the “clinical picture of psoriasis” value is “the itching disappeared, the temperature went down and the surface area of the affected zone shrunk”. Further, in the data set with psoriasis patients (drug plus topical 4% solution in 10% DMSO), the “epithelization of the pustules” value is “epithelization of the pustules occurred”. For the same compound, in the data set “physchem [1]”, the log distribution coefficient (logD) (commonly the decadic logarithm of the distribution of all forms, ionised or not, between an organic phase and buffer at a given pH) is -0.699. The pKa (in general, the negative logarithm of the acid dissociation constant) in “physchem [2]” stood at 6.3. The “response to subsequent treatment cycle” value with psoriasis (12 days) was “made it possible to eliminate the main symptoms and led to a long-term remission of the main symptoms”. In the data set on psoriasis (flexor parts of the hands), the “residual pustules and papules” value is “Individual pustules and papules on the flexor parts of the hands remained”. The “time to return of acute symptoms” value in the data set on psoriasis (human, in vivo) is 4 months. Moreover, the clinical symptoms result in the data set on psoriasis (intravenous, after 10 days of treatment) is “the itching and weakness disappeared, the temperature dropped and the skin symptoms disappeared”. Besides, the “affected parts of the skin tissue” value in the data set with psoriasis (intravenous, day 20) is given as “the affected parts of the skin tissue had shrunk”. In addition, the “percentage of surviving animals” value in data set [3] (30 mg/kg, p>0.05) is “did not increase”. In data set [3] (100 mg/kg intramuscular), the “cases with symptoms of neurological impairment” value was determined as 3 cases, the “effectiveness of intramuscular administration” value is given as “the intramuscular administration of the drug was not effective” and the surviving animals result is given as “Six out of 10”. Further, in data set [3] (100 mg/kg intravenous), the “cases without symptoms of neurological impairment” value was found to be 8 cases and the surviving animals is reported as 9 out of 10. Also, in data set [3] (150 mg/kg), the “cases with symptoms of damage to the central nervous system” value was 2 cases and the surviving animals worked out at 80%. For the same compound, the “survival rate on further dose increase” value in data set [3] (above 100 mg/kg) is given as “did not lead to a reliable increase in the survival rate”. For the same compound, the “surviving animals without symptoms of neurological impairment” value in data set [3] (two administrations of 100 mg/kg, 12-hour interval) turned out to be 9 animals. For the same compound, the stability result (anhydrous conditions) is reported as “stable in anhydrous conditions (can be preserved for over one year)”. Besides, under “aqueous solutions”, the “stability in aqueous solutions” value was “sometimes unstable in aqueous solutions”. In the data set with female pregnant rats (single dose on days 1, 3, 7, 10, 14 and 17 of gestation), the “abnormality of the fetuses” value was “No abnormality of the fetuses was observed”. In addition, the “site of uterine attachment, number, weight and mortality of the fetuses” value in the data set on female pregnant rats (vs control group) is “did not differ from those obtained for the control group”.
